One data set concerns CaCo-2 cells. The data set can be described thus: CaCo-2 assay (transport experiments). Conditions: for Permeability: class in words; for final basolateral concentration [μM ± SD]: initial donor concentration 50 μM. Format: in vitro ADME. As to the method: (§1) Four reference compounds (atenolol, testosterone, ketoprofene and erythromycin) were employed in each assay for evaluating the transport properties of the CaCo-2 cells. The initial concentration of the compounds in the donor compartment was 50 μM (in buffer with 1% ethanol or DMSO). […] For glycoprotein P (P-gp) studies, bidirectional experiments were performed. The absorptive and secretory permeabilities (Papp(a-b) and Papp(b-a)) were determined. Thus, erythromycin was used as a substrate, and verapamil was used as an inhibitor of P-gp. Each experiment was performed in triplicate. The integrity of the monolayer was determined by means of TEER (transepithelial electric resistance) and the permeability for each assay was determined using Lucifer Yellow. All samples of the CaCo-2 transport experiments were analyzed by means of LC/MS/MS after dilution with buffer (1:1 with 2% acetic acid).
(Caco-2 monolayers are a common model of the intestinal barrier.)

The nature of data set [1]: CaCo-2 assay (transport experiments). Format: in vitro ADME. Conditions: human, Caco-2; initial donor concentration 50 μM. On the procedure: as §1
A further data set concerns the target 17β-HSD1 (Homo sapiens (Human), UniProt P14061). The data set can be described thus: 17β-HSD1 test assay (recombinant protein from Sf9 insect cells, 3H-estrone/NADPH). Format: biochemical. The conditions noted are these: for inhibition at 1 µM: read-out: HSD 1 μM (% inhibition of HSD1); for inhibition at 0.1 µM: read-out: HSD1 100 nM (% inhibition). The method, boiled down:
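Sf9-expressed recombinant enzyme (0.1 μg/ml) with 30 nM 3H-estrone and 1 mM NADPH in 20 mM KH2PO4 pH 7.4, 30 min at RT; inhibitor at 1 μM or 100 nM, 1% DMSO final. Quenched with TCA; conversion measured by reversed-phase HPLC with flow scintillation detection.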

In a further data set the target is CYP1A2 (Homo sapiens (Human), UniProt P05177). The data set can be described thus: P450 inhibition assay CYP1A2.
In the next data set the target is CYP3A4 (Homo sapiens (Human), UniProt P08684). The data set can be described thus: P450 inhibition assay CYP3A4. Format: biochemical. The conditions noted are these: read-out: IC50 (mean ± SD) [μM] CYP3A4.
The target in another data set is CYP2C9 (Homo sapiens (Human), UniProt P11712). The data set can be described thus: P450 inhibition assay CYP2C9.
For a further data set, the target named is CYP2C19 (Homo sapiens (Human), UniProt P33261). The data set can be described thus: P450 inhibition assay CYP2C19.
Data set [2] is described as follows: Test for metabolic stability, liver microsomes. For orientation: Microsomes from liver hold many membrane-bound enzymes, among them those of drug oxidation.
Method: The assay was performed with liver microsomes of rats.
The incubation solution (180 μl) consists of 90 μl of a microsomal suspension of 0.33 mg/ml protein in 100 mM phosphate buffer, pH 7.4, with 90 μl NADP-regenerating system (NADP: 1 mM, glucose-6-phosphate 5 mM, glucose-6-phosphate dehydrogenase: 5 U/ml, MgCl2 5 mM).
The reaction is started by adding 20 μl of the compound to be tested in 20% ACN to the microsome/buffer mixture preincubated at 37° C. After 0, 15, 30 and 60 minutes, 200 μl of sample solution is withdrawn and subjected to ACN precipitation. The isolation of the compounds is effected by adding 200 μl ACN that contains the internal standard (1 μM) to 200 μl of sample solution and calibration standard. After shaking for 10 s and centrifugation at 4000 g, an aliquot of the supernatant is subjected to LC-MS/MS. Two controls are included, namely a positive control with 7-ethoxycoumarin as a reference to verify the microsomal enzyme activity, and a negative control in which microsomes are used that were heated for 25 minutes without a regenerating system, in order to ensure that the loss of substance is actually due to metabolization.
The amount of compound in a sample is expressed as the percent fraction of the compound remaining as compared to time t=0 (100%). The percent fraction is plotted versus time.
The nature of data set [3]: In vivo pharmacokinetics (rat), single oral administration. Conditions: single oral administration 50 mg/kg, male Wistar rats.
For the next data set, the target named is 17β-HSD2 (Homo sapiens (Human), UniProt P37059). The data set can be described thus: 17β-HSD2 test assay (recombinant protein from Sf9 insect cells, 3H-estradiol/NAD+). Format: biochemical. As to the method:
Recombinant protein obtained from Sf9 insect cells (0.1 μg/ml) is incubated with 20 mM KH2PO4, pH 7.4, 30 nM ^3H-estradiol and 1 mM NAD+ for 30 min at RT in the presence of the potential inhibitor in a concentration of 1 μM or 100 nM. The stock solutions of the compounds are prepared in DMSO so that the final concentration of DMSO in the sample is 1%. After the prescribed incubation time, the reaction is quenched by adding trichloroacetic acid (10% final concentration). The samples are centrifuged in microtitration plates at 400 rpm for 10 min, and the supernatants are charged on a reversed-phase HPLC equipped with a Waters Symmetrie C18 column and
Waters Sentry Guard column. The isocratic HPLC run is performed at RT with a flow rate of 1 ml/min and acetonitrile/water 48:52 as the eluent. The radioactivity was measured by means of a Packard Flow Scintillation Analyzer. The percent inhibition was calculated by means of the formulas stated above.

A further data set addresses CYP2B6 (Homo sapiens (Human), UniProt P20813). The data set can be described thus: P450 inhibition assay CYP2B6. Conditions: read-out: IC50 (mean ± SD) [μM] CYP2B6.
Another data set addresses CYP2D6 (Homo sapiens (Human), UniProt P10635). The data set can be described thus: P450 inhibition assay CYP2D6. Format: biochemical. Conditions: read-out: IC50 (mean ± SD) [μM] CYP2D6.

Read-outs that look alike come from different tables or passages of the source.

By Papp is commonly meant the rate of passage across a membrane or cell layer, normalised by area and donor concentration. One may read the inhibition as the relative decrease from the control value, in per cent. For orientation: IC50 means the concentration at which inhibition is half-maximal. Broadly, the half-life is the time needed for the level to fall by half in the phase considered. A high value points to slow decline. As usually defined, the microsomal CLint is the rate of metabolic loss divided by the concentration. Higher therefore signals rapid turnover. The AUC(0-t) is exposure summed from dosing to a finite time, without extrapolation to infinity. Low readings indicate less exposure, high ones more exposure. As usually defined, the Tmax is the time at which the peak concentration occurs. What is called AUC(0-inf) is the area under the concentration-time curve extrapolated to infinity.

Chain of 17β-HSD1 (P14061 whole entry): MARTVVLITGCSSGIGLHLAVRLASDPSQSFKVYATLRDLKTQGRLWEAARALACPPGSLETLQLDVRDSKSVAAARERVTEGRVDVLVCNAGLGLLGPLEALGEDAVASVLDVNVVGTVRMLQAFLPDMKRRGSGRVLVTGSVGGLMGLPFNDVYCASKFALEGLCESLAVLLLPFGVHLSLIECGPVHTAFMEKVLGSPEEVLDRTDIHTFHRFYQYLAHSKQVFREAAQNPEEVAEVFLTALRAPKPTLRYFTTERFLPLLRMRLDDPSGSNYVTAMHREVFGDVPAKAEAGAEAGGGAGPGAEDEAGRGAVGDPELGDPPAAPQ
Chain of CYP1A2 (P05177 whole entry): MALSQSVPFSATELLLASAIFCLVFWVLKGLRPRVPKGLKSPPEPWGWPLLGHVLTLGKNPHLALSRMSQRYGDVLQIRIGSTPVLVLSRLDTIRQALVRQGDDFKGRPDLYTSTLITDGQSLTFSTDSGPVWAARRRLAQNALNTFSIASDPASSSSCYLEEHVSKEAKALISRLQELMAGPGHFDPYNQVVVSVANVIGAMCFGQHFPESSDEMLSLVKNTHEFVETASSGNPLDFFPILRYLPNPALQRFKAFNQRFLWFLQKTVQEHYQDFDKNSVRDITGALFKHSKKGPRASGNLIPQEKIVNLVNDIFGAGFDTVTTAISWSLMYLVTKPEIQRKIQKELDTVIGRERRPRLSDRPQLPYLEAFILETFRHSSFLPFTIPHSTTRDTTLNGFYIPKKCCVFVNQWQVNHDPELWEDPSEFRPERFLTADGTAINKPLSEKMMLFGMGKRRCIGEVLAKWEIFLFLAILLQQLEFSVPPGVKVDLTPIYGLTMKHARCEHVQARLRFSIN
Chain of CYP3A4 (P08684 whole entry): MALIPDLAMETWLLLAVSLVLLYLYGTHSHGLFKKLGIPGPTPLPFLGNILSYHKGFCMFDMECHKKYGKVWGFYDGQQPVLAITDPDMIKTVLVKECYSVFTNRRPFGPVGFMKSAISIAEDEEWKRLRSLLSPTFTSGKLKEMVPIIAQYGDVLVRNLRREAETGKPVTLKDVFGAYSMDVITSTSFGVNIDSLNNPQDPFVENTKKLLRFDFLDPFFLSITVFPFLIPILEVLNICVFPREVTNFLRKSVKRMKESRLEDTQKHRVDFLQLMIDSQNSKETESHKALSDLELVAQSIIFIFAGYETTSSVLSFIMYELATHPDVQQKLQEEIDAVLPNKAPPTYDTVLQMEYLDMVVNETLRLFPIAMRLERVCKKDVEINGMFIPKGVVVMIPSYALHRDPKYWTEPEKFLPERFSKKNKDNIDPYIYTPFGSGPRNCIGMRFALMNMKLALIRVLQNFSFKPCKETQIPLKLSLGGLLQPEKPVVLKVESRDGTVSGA
Chain of 17β-HSD2 (P37059 whole entry): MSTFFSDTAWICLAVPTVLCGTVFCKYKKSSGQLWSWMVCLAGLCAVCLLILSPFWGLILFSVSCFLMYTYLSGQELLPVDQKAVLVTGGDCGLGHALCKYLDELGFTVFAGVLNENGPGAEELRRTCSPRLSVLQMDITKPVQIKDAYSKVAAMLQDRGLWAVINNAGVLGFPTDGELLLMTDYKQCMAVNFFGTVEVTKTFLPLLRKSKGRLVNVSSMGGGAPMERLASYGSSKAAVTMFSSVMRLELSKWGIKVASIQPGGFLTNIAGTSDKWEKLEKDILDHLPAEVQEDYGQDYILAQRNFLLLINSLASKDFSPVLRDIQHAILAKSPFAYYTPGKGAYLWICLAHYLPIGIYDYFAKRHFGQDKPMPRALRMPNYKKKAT
Chain of CYP2C19 (P33261 whole entry): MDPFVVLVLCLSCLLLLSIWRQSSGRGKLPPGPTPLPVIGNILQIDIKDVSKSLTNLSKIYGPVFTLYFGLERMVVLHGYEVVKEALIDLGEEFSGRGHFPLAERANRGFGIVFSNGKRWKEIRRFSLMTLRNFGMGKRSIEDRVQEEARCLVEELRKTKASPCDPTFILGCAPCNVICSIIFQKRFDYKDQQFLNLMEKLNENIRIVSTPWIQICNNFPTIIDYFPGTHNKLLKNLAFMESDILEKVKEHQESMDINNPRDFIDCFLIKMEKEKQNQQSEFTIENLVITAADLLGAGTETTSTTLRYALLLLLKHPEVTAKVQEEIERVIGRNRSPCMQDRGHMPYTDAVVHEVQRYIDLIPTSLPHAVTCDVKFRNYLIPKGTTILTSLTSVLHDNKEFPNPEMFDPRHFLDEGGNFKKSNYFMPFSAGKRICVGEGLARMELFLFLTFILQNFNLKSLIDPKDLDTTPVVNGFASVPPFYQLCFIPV
Chain of CYP2C9 (P11712 whole entry): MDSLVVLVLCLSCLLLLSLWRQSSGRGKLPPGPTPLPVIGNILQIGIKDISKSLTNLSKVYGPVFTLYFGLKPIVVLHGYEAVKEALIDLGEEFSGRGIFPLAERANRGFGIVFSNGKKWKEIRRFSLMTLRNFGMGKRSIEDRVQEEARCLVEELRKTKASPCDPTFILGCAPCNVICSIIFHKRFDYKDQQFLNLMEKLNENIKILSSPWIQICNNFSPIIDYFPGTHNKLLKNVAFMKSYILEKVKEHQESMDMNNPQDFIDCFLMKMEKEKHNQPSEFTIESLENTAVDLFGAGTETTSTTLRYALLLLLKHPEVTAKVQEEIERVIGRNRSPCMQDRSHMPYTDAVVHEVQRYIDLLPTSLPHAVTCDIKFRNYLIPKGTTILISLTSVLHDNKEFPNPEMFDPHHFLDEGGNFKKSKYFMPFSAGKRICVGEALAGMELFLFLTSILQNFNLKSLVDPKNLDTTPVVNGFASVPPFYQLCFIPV
Chain of CYP2D6 (P10635 whole entry): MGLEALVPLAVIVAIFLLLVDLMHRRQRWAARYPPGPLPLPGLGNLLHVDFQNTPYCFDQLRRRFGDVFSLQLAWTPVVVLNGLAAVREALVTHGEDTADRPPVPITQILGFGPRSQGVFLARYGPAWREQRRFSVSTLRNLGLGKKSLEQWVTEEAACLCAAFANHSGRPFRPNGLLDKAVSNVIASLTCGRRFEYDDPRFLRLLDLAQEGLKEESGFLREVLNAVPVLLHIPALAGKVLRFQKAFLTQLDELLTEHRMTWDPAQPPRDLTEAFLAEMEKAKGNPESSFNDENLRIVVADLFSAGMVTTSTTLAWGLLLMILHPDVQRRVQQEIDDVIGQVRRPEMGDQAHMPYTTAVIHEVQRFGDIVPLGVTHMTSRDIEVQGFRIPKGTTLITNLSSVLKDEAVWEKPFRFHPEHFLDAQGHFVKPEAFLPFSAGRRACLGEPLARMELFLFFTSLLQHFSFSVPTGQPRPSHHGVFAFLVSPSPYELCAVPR
Chain of CYP2B6 (P20813 whole entry): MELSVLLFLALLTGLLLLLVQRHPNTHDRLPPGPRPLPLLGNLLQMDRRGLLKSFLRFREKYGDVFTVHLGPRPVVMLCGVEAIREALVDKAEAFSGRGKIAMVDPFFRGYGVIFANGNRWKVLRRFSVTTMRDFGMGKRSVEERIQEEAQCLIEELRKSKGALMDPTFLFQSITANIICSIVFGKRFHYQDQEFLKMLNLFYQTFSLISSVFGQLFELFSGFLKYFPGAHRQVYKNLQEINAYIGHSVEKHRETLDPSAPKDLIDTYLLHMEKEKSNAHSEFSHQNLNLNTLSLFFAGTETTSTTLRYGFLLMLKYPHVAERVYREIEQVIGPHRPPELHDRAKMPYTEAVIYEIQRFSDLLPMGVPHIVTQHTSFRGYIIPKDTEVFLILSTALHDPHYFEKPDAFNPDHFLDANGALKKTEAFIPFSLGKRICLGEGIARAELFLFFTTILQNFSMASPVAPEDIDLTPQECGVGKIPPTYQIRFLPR

Consider `N#Cc1cc(O)cc2ccc(-c3cccc(O)c3)cc12` [Compound 54, 3-Hydroxy-7-(3-hydroxyphenyl)-1-naphthonitrile], for which the “mass balance [% ± SD]” value in the data set with CaCo-2 cells is given as 30.5 ± 3.1%. In addition, the Permeability entry with CaCo-2 cells was “moderate”. Besides, the “final basolateral concentration [μM ± SD]” value in the data set with CaCo-2 cells was found to be 3.7 ± 0.3 µM. Further, the Papp at 180 min, 50 μM in data set [1] came to 4.4 ×10⁻⁶ cm/s. In addition, on 17β-HSD1 (inhibitor 1 μM), the inhibition at 1 µM amounted to 94%. Further, the inhibition at 0.1 µM on 17β-HSD1 (inhibitor 100 nM) was 83%. Further, the IC50 against CYP1A2 was determined as 259 ± 10 nM; at CYP3A4, 2.05 ± 0.18 µM; on CYP2C9, 0.224 ± 0.002 µM; on CYP2C19 it was 1.21 ± 0.19 µM.

Turning to `Oc1cccc(-c2ccc3c(-c4cccnc4)c(O)ccc3c2)c1` [Compound 59, 6-(3-Hydroxyphenyl)-1-(pyridin-3-yl)naphthalene-2-ol], in the data set on CaCo-2 cells, the “mass balance [% ± SD]” value is 29.9 ± 2.4%. In addition, the Permeability entry in the data set on CaCo-2 cells was “high”. Besides, the “final basolateral concentration [μM ± SD]” value in the data set with CaCo-2 cells worked out at 11.0 ± 0.5 µM. Moreover, the Papp at 180 min, 50 μM in [1] amounted to 13.8 ×10⁻⁶ cm/s. The inhibition at 1 µM at 17β-HSD1 was 92.3%; on 17β-HSD2 (read-out: HSD2 1 μM (% inhibition), inhibitor 1 μM) it was 90.3%. Further, the inhibition at 0.1 µM at 17β-HSD1 came out at 87.4%; at 17β-HSD2 (read-out: HSD2 100 nM (% inhibition), inhibitor 100 nM), 66.1%. The “Slope (−k)” value in [2] (rat liver microsomes) is −0.051. Besides, the half-life in data set [2] (rat, liver microsomes, pH 7.4) is 0.227 h. This compound showed a microsomal CLint in data set [2] (rat, liver microsomes, pH 7.4) of 340 µL/min/mg. For the same compound, the IC50 came out at 14 nM against CYP1A2; 0.221 ± 0.002 µM on CYP3A4; 0.15 ± 0.03 µM on CYP2C9 (read-out: IC50 (mean ± SD) [μM] CYP2C9); 5.34 ± 0.391 µM on CYP2B6; 22.9 ± 1.85 µM on CYP2D6; 0.88 ± 0.03 µM on CYP2C19 (read-out: IC50 (mean ± SD) [μM] CYP2C19). The same compound registered an AUC(0-t) in data set [3] (rat, plasma) of 203 ng·h/mL. Besides, the Tmax in data set [3] (rat, plasma) was determined as 2 h. Besides, the AUC(0-inf) in data set [3] (rat, plasma, extrapolated to ∞) is 203 ng·h/mL. For the same compound, the “t1/2z” value in data set [3] stood at 1.54 h. In addition, in data set [3], the “tz” value worked out at 8.0 h.
